Reference: patent US20240245783A1, “METALLO-BETA-LACTAMASE INHIBITOR” (priority 2021, published 2024)

What was measured:
[1] = tested on: IMP-1-expressing Klebsiella pneumoniae; assay: Survival of Leukopenia mice infected with IMP-1-expressing Klebsiella pneumoniae (Test Example 6); assay type: in vivo; details: meropenem 10 mg/kg alone subcutaneously; 48 hours; Leukopenia ddY mice
Protocol: DTPA-conjugated cefalexin (compound 1)'s effect of enhancing the drug susceptibility of pathogenic bacteria was examined by an in vivo experiment using bacteria-infected mice. To prepare a compromised Leukopenia mouse model, 0.1 mL of cyclophosphamide monohydrate (Sigma-Aldrich) prepared with PBS was administered intraperitoneally to 4-week-old male ddY mice (Japan SLC) at 250 mg/kg at 4 days before infection. IMP-1-expressing Klebsiella pneumoniae used herein was a clinical isolate provided by Kumamoto University Hospital. The bacteria were cultured overnight with shaking in LB medium at 37° C., then diluted 50-fold with LB medium, and further cultured with shaking, so that the turbidity (600 nm) was 1.5 or higher. The bacteria were centrifuged to remove the medium, washed twice with PBS, and then diluted with PBS to 5×10^5 CFU/mL. In the mouse infection experiment, each Leukopenia mouse was infected with 0.1 mL (5×10^4 CFU) of IMP-1-expressing Klebsiella pneumoniae by intraperitoneal injection. Thirty minutes after infection, 0.1 mL of a mixed solution containing meropenem (Wako Pure Chemical Industries, Ltd.) and compound 1 (DTPA-CEF) was subcutaneously administered to each mouse of a treatment mouse group at 10 mg/kg and 50 mg/kg, respectively. […] Forty-eight hours after infection, mice were assessed for viability. […]

[2] = tested on: E. coli clinical isolate expressing IMP-1; assay: Meropenem MIC against E. coli clinical isolate expressing IMP-1 (Test Example 10); assay type: cell-based; details: Escherichia coli, 24 h, read-out: minimum inhibitory concentration
Protocol: The enhancing effect of DTPA-ADCA on the susceptibility of E. coli clinical isolate expressing IMP-1 to a carbapenem antibacterial agent (meropenem) was evaluated by the following method. The E. coli clinical isolate was cultured overnight with shaking in LB medium. The bacterial solution was diluted to 1/1000 with LB medium, used as a test bacterial solution, and then seeded in a 96-well plate. Meropenem (Wako Pure Chemical Industries, Ltd.) was added to the bacterial solution, thereby performing two-step dilution from a maximum of 10 μg/ml. The bacteria were cultured in an incubator at 37° C. for one day, and growth at that time was measured by turbidity (655 nm). The meropenem concentration at which no bacterial growth had been observed was defined as the minimum inhibitory concentration.
The effect of DTPA-ADCA on the susceptibility of an E. coli clinical isolate to meropenem was evaluated by the following method. The E. coli clinical isolate was cultured overnight with shaking in LB medium. The bacterial solution was diluted to 1/1000 with LB medium, used as the test bacterial solution, and then seeded in a 96-well plate. Meropenem (Wako Pure Chemical Industries, Ltd.) was added to this bacterial solution in the range of 0.1 μg/ml to 0.005 μg/ml. Here, DTPA or DTPA-ADCA was used in combination therewith at a concentration of […], and the effect on bacterial growth was examined. The bacteria were cultured in an incubator at 37° C. for one day, and the growth at that time was measured by turbidity (655 nm).
FIG. 20 depicts the results. Multidrug-resistant E. coli was cultured with compounds having the indicated concentrations and the bacterial load was assessed by turbidity after 24 hours. […] Combined use of DTPA-ADCA (20 μM) reduced the minimum inhibitory concentration of meropenem to […] and enhanced the antibacterial activity by 100 times.

[3] = tested on: multidrug-resistant Pseudomonas aeruginosa; assay: Growth suppression of multidrug-resistant Pseudomonas aeruginosa clinical isolates (Test Example 7); assay type: cell-based; details: MEPM 2 μg/ml alone, compound 8 20 μM (15.5 μg/ml) alone, Combination = both, 3 wells
Protocol: The effect of NODA-GA-conjugated doripenem (compound 8) on the susceptibility of a Pseudomonas aeruginosa clinical isolate to a carbapenem antibacterial agent was evaluated by the following method. The Pseudomonas aeruginosa clinical isolate was cultured overnight with shaking in LB medium. The bacterial solution was diluted to 1/1000 with LB medium, used as a test bacterial solution, and then seeded in a 96-well plate. Meropenem (Wako Pure Chemical Industries, Ltd.) was added to this bacterial solution in such a manner that the concentration was 2 μg/ml. The effect of NODA-GA-doripenem alone was also examined. The bacteria were cultured in an incubator at 37° C. for one day, and the growth at that time was measured by turbidity (655 nm).
MEPM in Table 1 is meropenem (2 μg/ml) administered alone; NODA-GA-doripenem is compound 8 (20 μM; 15.5 μg/ml) administered alone; Combination means a combined use of meropenem (2 μg/ml) and compound 8 (20 μM; 15.5 μg/ml).

C[C@@H](O)[C@H]1C(=O)N2C(C(=O)O)=C(S[C@@H]3CN[C@H](C(=O)N(C)C)C3)[C@H](C)[C@H]12 [meropenem, reference compound]
survival [1]: All mice of the meropenem administration group died
MIC [2]: 10 µg/mL
suppression of bacterial growth ([3]; strain 808#1): X (x indicates that the number of wells in which suppression of bacterial growth was confirmed was 1 or less)
suppression of bacterial growth ([3]; strain 808#2): X (x indicates that the number of wells in which suppression of bacterial growth was confirmed was 1 or less)
suppression of bacterial growth ([3]; strain MR1): X (x indicates that the number of wells in which suppression of bacterial growth was confirmed was 1 or less)
suppression of bacterial growth ([3]; strain MR2): X (x indicates that the number of wells in which suppression of bacterial growth was confirmed was 1 or less)
suppression of bacterial growth ([3]; strain MR3): X (x indicates that the number of wells in which suppression of bacterial growth was confirmed was 1 or less)
suppression of bacterial growth ([3]; strain MR4): X (x indicates that the number of wells in which suppression of bacterial growth was confirmed was 1 or less)
suppression of bacterial growth ([3]; strain MR5): X (x indicates that the number of wells in which suppression of bacterial growth was confirmed was 1 or less)
suppression of bacterial growth ([3]; strain MR6): X (x indicates that the number of wells in which suppression of bacterial growth was confirmed was 1 or less)
suppression of bacterial growth ([3]; strain MR7): X (x indicates that the number of wells in which suppression of bacterial growth was confirmed was 1 or less)
suppression of bacterial growth ([3]; strain MR8): X (x indicates that the number of wells in which suppression of bacterial growth was confirmed was 1 or less)
suppression of bacterial growth ([3]; strain MR9): X (x indicates that the number of wells in which suppression of bacterial growth was confirmed was 1 or less)
suppression of bacterial growth ([3]; strain MR10): X (x indicates that the number of wells in which suppression of bacterial growth was confirmed was 1 or less)
suppression of bacterial growth ([3]; strain MR11): X (x indicates that the number of wells in which suppression of bacterial growth was confirmed was 1 or less)
suppression of bacterial growth ([3]; strain MR12): X (x indicates that the number of wells in which suppression of bacterial growth was confirmed was 1 or less)
suppression of bacterial growth ([3]; strain MR13): X (x indicates that the number of wells in which suppression of bacterial growth was confirmed was 1 or less)
suppression of bacterial growth ([3]; strain MR14): X (x indicates that the number of wells in which suppression of bacterial growth was confirmed was 1 or less)
suppression of bacterial growth ([3]; strain MR15): X (x indicates that the number of wells in which suppression of bacterial growth was confirmed was 1 or less)
suppression of bacterial growth ([3]; strain MR16): X (x indicates that the number of wells in which suppression of bacterial growth was confirmed was 1 or less)
suppression of bacterial growth ([3]; strain NM1): X (x indicates that the number of wells in which suppression of bacterial growth was confirmed was 1 or less)
suppression of bacterial growth ([3]; strain NM2): X (x indicates that the number of wells in which suppression of bacterial growth was confirmed was 1 or less)
suppression of bacterial growth ([3]; strain NM3): X (x indicates that the number of wells in which suppression of bacterial growth was confirmed was 1 or less)
suppression of bacterial growth ([3]; strain NM4): X (x indicates that the number of wells in which suppression of bacterial growth was confirmed was 1 or less)
suppression of bacterial growth ([3]; strain NM5): X (x indicates that the number of wells in which suppression of bacterial growth was confirmed was 1 or less)
